The assay has as its target T1, Na^+ -dependent bile acid transport system (Oryctolagus cuniculus, UniProt Q28727).
T1 construct: Brush border membrane vesicles from the intestinal cells of the small intestine were prepared by the so-called Mg^2+ precipitation method; from tissue; host or cells: terminal ileum (terminal 7/10 of small intestine) of male New Zealand rabbits, brush border membrane vesicles
T1 sequence (Q28727 1-347): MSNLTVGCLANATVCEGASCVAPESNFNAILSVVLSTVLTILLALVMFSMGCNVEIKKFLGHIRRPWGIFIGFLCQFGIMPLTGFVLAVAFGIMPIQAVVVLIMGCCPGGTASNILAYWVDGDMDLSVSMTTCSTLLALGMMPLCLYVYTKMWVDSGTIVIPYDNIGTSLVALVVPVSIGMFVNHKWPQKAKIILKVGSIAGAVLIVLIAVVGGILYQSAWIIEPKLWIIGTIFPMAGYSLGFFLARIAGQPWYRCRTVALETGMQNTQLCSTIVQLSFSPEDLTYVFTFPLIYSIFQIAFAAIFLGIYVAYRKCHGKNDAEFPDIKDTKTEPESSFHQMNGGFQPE
The experiment in a line: inhibition of Na+-dependent [3H]-taurocholate absorption in brush border membrane vesicles of rabbit ileum (membrane filtration technique). As to conditions: 50 μM taurocholate, customarily 1 minute, pH 7.4; for IC50Na (TCDC) / IC50Na (Substance): quotient of IC50Na of the standard TCDC and of the substance, Na+-dependent transport (difference Na-T-B minus K-T-B); for IC50 (TCDC) / IC50 (Substance): quotient of IC50 of the standard taurochenodeoxycholate (TCDC) and of the substance. It counts as biochemical. The method, then: The biological testing of the compounds according to the invention was carried out by determining the inhibition of [^3 H]-taurocholate absorption in brush border membrane vesicles of the rabbit ileum. The inhibition test was carried out as follows:
Brush border membrane vesicles from the intestinal cells of the small intestine were prepared by the so-called Mg^2+ precipitation method. Male New Zealand rabbits (2 to 2.5 kg body weight) were sacrificed by intravenous injection of 0.5 ml of an aqueous solution of 2.5 mg of tetracaine HCl, 100 T 61® and 25 mg of mebezonium iodide. The small intestine was removed and rinsed with ice-cold physiological saline solution. The terminal 7/10 of the small intestine (measured in the oral-rectal direction, i.e. the terminal ileum, which contains the active Na^+ -dependent bile acid transport system) were used for the preparation of the brush border membrane vesicles. The intestines were frozen under nitrogen at -80° C. in plastic bags. For the preparation of the membrane vesicles, the frozen intestines were thawed at 30° C. in a water bath. The mucosa was scraped off and suspended in 60 ml of ice-cold 12 mM tris/HCl buffer (pH 7.1)/300 mM mannitol, 5 mM EGTA/ 10 mg/l of phenylmethylsulfonyl fluoride/l mg/l of trypsin inhibitor from soybeans (32 U/mg)/0.5 mg/l of trypsin inhibitor from bovine lung (193 U/mg)/5 mg/l of bacitracin. After dilution to 300 ml with ice-cold distilled water, the suspension was homogenized using an Ultraturrax (18-rod, IKAWerk Staufen, FRG) for 3 minutes at 75% maximum power with ice-cooling. After addition of 3 ml of 1M MgCl2 solution (final concentration 10 mM), the homogenate was allowed to stand at 0° C. for exactly 1 minute. As a result of addition of Mg^2+, the cell membranes aggregate and precipitate with the exception of the brush border membranes. After centrifugation at 3000×g for 15 minutes (5000 rpm, SS-34 rotor), the precipitate is discarded and the supernatant which contains the brush border membranes is centrifuged at […] for 30 minutes (15,000 rpm, SS-34 rotor). The supernatant was discarded and the precipitate was rehomogenized in 60 ml of 12 mM tris/HCl buffer (pH 7.1)/60 mM mannitol/5 mM EGTA using a Potter Elvejhem homogenizer (Braun Melsungen, 900 rpm, 10 strokes). After addition of 0.1 ml of 1M MgCl2 solution and an incubation time of 15 minutes at 0° C., centrifugation was once more carried out at 3000×g for 15 minutes. The supernatant was then centrifuged again at 46,000×g (15,000 rpm, SS-34 rotor) for 30 minutes. The precipitate was taken up in 30 ml of 10 mM tris/hepes buffer (pH 7.4)/300 mM mannitol and homogeneously resuspended at 1000 rpm by 20 strokes in a Potter Elvejhem homogenizer. After centrifugation at 48,000×g (20,000 rpm, SS-34 rotor) for 30 minutes, the precipitate was taken up in 0.5 to 2 ml of tris/HEPES buffer (pH 7.4)/280mM mannitol (final concentration 20 mg/ml) and resuspended with the aid of a tuberculin syringe having a 27 gauge needle. The vesicles were either used immediately after preparation for transport investigations or stored in liquid nitrogen at -196° C. in 4 mg portions.
The absorption of substrates in the brush border membrane vesicles described above was determined by means of the so-called membrane filtration technique. 10 μl of the vesicle suspension (100 μg of protein) were pipetted as drops onto the wall of a polystyrene incubation tube (11×70 mm) which contained the incubation medium with the appropriate ligands (90 μl). The incubation medium contained 0.75 μl=0.75 μCi of [^3 H(G)]-taurocholate (specific activity: 2.1 Ci/mMol)/0.5 μl of 10 mM taurocholate/8.75 μl of sodium transport buffer (10 mM tris/HEPES (pH 7.4)/100 mM mannitol/100 mM NaCl) (Na-T-B) or 8.75 μl of potassium transport buffer (10 mM tris/hepes (pH 7.4)/100 mM mannitol/100 mM KCl) (K-T-B) and 80 μl of the inhibitor solution concerned, depending on the experiment, dissolved in Na-T buffer or K-T buffer. […]

SMILES strings stand for the structures.

As to `C[C@H](CCC(=O)O)[C@H]1CC[C@H]2[C@@H]3[C@H](O)C[C@@H]4C[C@@H](OCCCCCNC(=O)c5cc(C(=O)NCCCCCO[C@H]6CC[C@@]7(C)[C@@H](C6)C[C@@H](O)[C@@H]6[C@@H]7C[C@H](O)[C@]7(C)[C@@H]([C@H](C)CCC(=O)O)CC[C@@H]67)cc(C(=O)NCCCCCO[C@H]6CC[C@@]7(C)[C@@H](C6)C[C@@H](O)[C@@H]6[C@@H]7C[C@H](O)[C@]7(C)[C@@H]([C@H](C)CCC(=O)O)CC[C@@H]67)c5)CC[C@]4(C)[C@H]3C[C@H](O)[C@]12C` [Example 20], the “IC50Na (TCDC) / IC50Na (Substance)” value came out at 0.86 and the “IC50 (TCDC) / IC50 (Substance)” value came out at 0.43.

Turning to `C[C@H](CCC(=O)O)[C@H]1CC[C@H]2[C@@H]3[C@H](O)C[C@@H]4C[C@@H](OCCNC(=O)CCC(CCC(=O)NCCO[C@H]5CC[C@@]6(C)[C@@H](C5)C[C@@H](O)[C@@H]5[C@@H]6C[C@H](O)[C@]6(C)[C@@H]([C@H](C)CCC(=O)O)CC[C@@H]56)(CCC(=O)NCCO[C@H]5CC[C@@]6(C)[C@@H](C5)C[C@@H](O)[C@@H]5[C@@H]6C[C@H](O)[C@]6(C)[C@@H]([C@H](C)CCC(=O)O)CC[C@@H]56)[N+](=O)[O-])CC[C@]4(C)[C@H]3C[C@H](O)[C@]12C` [Example 7], the “IC50Na (TCDC) / IC50Na (Substance)” value is 0.34 and the “IC50 (TCDC) / IC50 (Substance)” value is on record as 0.29.

Regarding `C[C@H](CCC(=O)O)[C@H]1CC[C@H]2[C@@H]3[C@H](O)C[C@@H]4C[C@@H](OCCCCCCNC(=O)[C@]5(C)C[C@](C)(C(=O)NCCCCCCO[C@H]6CC[C@@]7(C)[C@@H](C6)C[C@@H](O)[C@@H]6[C@@H]7C[C@H](O)[C@]7(C)[C@@H]([C@H](C)CCC(=O)O)CC[C@@H]67)C[C@](C)(C(=O)NCCCCCCO[C@H]6CC[C@@]7(C)[C@@H](C6)C[C@@H](O)[C@@H]6[C@@H]7C[C@H](O)[C@]7(C)[C@@H]([C@H](C)CCC(=O)O)CC[C@@H]67)C5)CC[C@]4(C)[C@H]3C[C@H](O)[C@]12C` [Example 16], the “IC50Na (TCDC) / IC50Na (Substance)” value is listed as 0.31 and the “IC50 (TCDC) / IC50 (Substance)” value is 0.37.

As to `C[C@H](CCC(=O)O)[C@H]1CC[C@H]2[C@@H]3[C@H](O)C[C@@H]4C[C@@H](NC(=O)[C@]5(C)C[C@](C)(C(=O)N[C@H]6CC[C@@]7(C)[C@@H](C6)C[C@@H](O)[C@@H]6[C@@H]7C[C@H](O)[C@]7(C)[C@@H]([C@H](C)CCC(=O)O)CC[C@@H]67)C[C@](C)(C(=O)N[C@H]6CC[C@@]7(C)[C@@H](C6)C[C@@H](O)[C@@H]6[C@@H]7C[C@H](O)[C@]7(C)[C@@H]([C@H](C)CCC(=O)O)CC[C@@H]67)C5)CC[C@]4(C)[C@H]3C[C@H](O)[C@]12C` [Example 33], the “IC50Na (TCDC) / IC50Na (Substance)” value was 1.04 and the “IC50 (TCDC) / IC50 (Substance)” value came out at 0.77.

`C[C@H](CCC(=O)O)[C@H]1CC[C@H]2[C@@H]3[C@H](O)C[C@@H]4C[C@H](CCNC(=O)c5cc(C(=O)NCC[C@@H]6CC[C@@]7(C)[C@@H](C6)C[C@@H](O)[C@@H]6[C@@H]7C[C@H](O)[C@]7(C)[C@@H]([C@H](C)CCC(=O)O)CC[C@@H]67)cc(C(=O)NCC[C@@H]6CC[C@@]7(C)[C@@H](C6)C[C@@H](O)[C@@H]6[C@@H]7C[C@H](O)[C@]7(C)[C@@H]([C@H](C)CCC(=O)O)CC[C@@H]67)c5)CC[C@]4(C)[C@H]3C[C@H](O)[C@]12C` [Example 18]: the “IC50Na (TCDC) / IC50Na (Substance)” value amounted to 0.76 and the “IC50 (TCDC) / IC50 (Substance)” value is listed as 0.85.

With `C[C@H](CCC(=O)O)[C@H]1CC[C@H]2[C@@H]3[C@H](O)C[C@@H]4C[C@@H](NC(=O)CCOCCCOCC(C)(COCCCOCCC(=O)N[C@H]5CC[C@@]6(C)[C@@H](C5)C[C@@H](O)[C@@H]5[C@@H]6C[C@H](O)[C@]6(C)[C@@H]([C@H](C)CCC(=O)O)CC[C@@H]56)COCCCOCCC(=O)N[C@H]5CC[C@@]6(C)[C@@H](C5)C[C@@H](O)[C@@H]5[C@@H]6C[C@H](O)[C@]6(C)[C@@H]([C@H](C)CCC(=O)O)CC[C@@H]56)CC[C@]4(C)[C@H]3C[C@H](O)[C@]12C` [Example 11], the “IC50Na (TCDC) / IC50Na (Substance)” value is on record as 0.36 and the “IC50 (TCDC) / IC50 (Substance)” value was determined as 0.29.

For `C[C@H](CCC(=O)O)[C@H]1CC[C@H]2[C@@H]3[C@H](O)C[C@@H]4C[C@@H](OCCCCCCNC(=O)c5cc(C(=O)NCCCCCCO[C@H]6CC[C@@]7(C)[C@@H](C6)C[C@@H](O)[C@@H]6[C@@H]7C[C@H](O)[C@]7(C)[C@@H]([C@H](C)CCC(=O)O)CC[C@@H]67)cc(C(=O)NCCCCCCO[C@H]6CC[C@@]7(C)[C@@H](C6)C[C@@H](O)[C@@H]6[C@@H]7C[C@H](O)[C@]7(C)[C@@H]([C@H](C)CCC(=O)O)CC[C@@H]67)c5)CC[C@]4(C)[C@H]3C[C@H](O)[C@]12C` [Example 21], the “IC50Na (TCDC) / IC50Na (Substance)” value came out at 0.59 and the “IC50 (TCDC) / IC50 (Substance)” value turned out to be 0.29.

Turning to `C[C@H](CCC(=O)O)[C@H]1CC[C@H]2[C@@H]3[C@H](O)C[C@@H]4C[C@@H](OCCCCCNC(=O)[C@]5(C)C[C@](C)(C(=O)NCCCCCO[C@H]6CC[C@@]7(C)[C@@H](C6)C[C@@H](O)[C@@H]6[C@@H]7C[C@H](O)[C@]7(C)[C@@H]([C@H](C)CCC(=O)O)CC[C@@H]67)C[C@](C)(C(=O)NCCCCCO[C@H]6CC[C@@]7(C)[C@@H](C6)C[C@@H](O)[C@@H]6[C@@H]7C[C@H](O)[C@]7(C)[C@@H]([C@H](C)CCC(=O)O)CC[C@@H]67)C5)CC[C@]4(C)[C@H]3C[C@H](O)[C@]12C` [Example 31], the “IC50Na (TCDC) / IC50Na (Substance)” value came out at 0.93 and the “IC50 (TCDC) / IC50 (Substance)” value came out at 1.26.

`CC(CCC(=O)O)C1CCC2C3C(O)CC4CC(OCCNC(=O)C5C(C(=O)NCCOC6CCC7(C)C(C6)CC(O)C6C7CC(O)C7(C)C(C(C)CCC(=O)O)CCC67)C(c6ccccc6)C5C(=O)NCCOC5CCC6(C)C(C5)CC(O)C5C6CC(O)C6(C)C(C(C)CCC(=O)O)CCC56)CCC4(C)C3CC(O)C12C` (centres unmarked) [Example 45]: the “IC50Na (TCDC) / IC50Na (Substance)” value is listed as 0.23 and the “IC50 (TCDC) / IC50 (Substance)” value is recorded as 0.32.

As for `C[C@H](CCC(=O)O)[C@H]1CC[C@H]2[C@@H]3[C@H](O)C[C@@H]4C[C@@H](OCCNC(=O)CCOCC(C)(COCCC(=O)NCCO[C@H]5CC[C@@]6(C)[C@@H](C5)C[C@@H](O)[C@@H]5[C@@H]6C[C@H](O)[C@]6(C)[C@@H]([C@H](C)CCC(=O)O)CC[C@@H]56)COCCC(=O)NCCO[C@H]5CC[C@@]6(C)[C@@H](C5)C[C@@H](O)[C@@H]5[C@@H]6C[C@H](O)[C@]6(C)[C@@H]([C@H](C)CCC(=O)O)CC[C@@H]56)CC[C@]4(C)[C@H]3C[C@H](O)[C@]12C` [Example 10], the “IC50Na (TCDC) / IC50Na (Substance)” value is given as 0.26 and the “IC50 (TCDC) / IC50 (Substance)” value came out at 0.24.

Values taken from patent US5428182A, “Bile acid derivatives, process for their preparation and use of these compounds as pharmaceuticals” (Hoechst Aktiengesellschaft, priority 1992, dated 1995).
